From article PMC8404221 (European journal of pharmaceutical sciences : official …, 2021)
“And” between values parts separate entries of the source, which are not always exact repeats. Equal values may be shown once. Read-outs that look alike come from different tables or passages of the source. Marks after values point to notes of the source that are not given here.

Assays:
DYRK1A [1] = molecular target: T1, DYRK1A (Homo sapiens, UniProt Q13627); test: biochemical; type: binding; settings: for inhibition at 6.7 µM: read-out: DYRK1A inhibition in pilot HTS
DYRK1A [2] = molecular target: T1, DYRK1A; test: biochemical; type: biochemical
[3] = molecular target: T2, Monoamine oxidase-A (MAO-A) (Homo sapiens, UniProt P21397); test: biochemical; type: biochemical
T2 sequence (P21397 1-527): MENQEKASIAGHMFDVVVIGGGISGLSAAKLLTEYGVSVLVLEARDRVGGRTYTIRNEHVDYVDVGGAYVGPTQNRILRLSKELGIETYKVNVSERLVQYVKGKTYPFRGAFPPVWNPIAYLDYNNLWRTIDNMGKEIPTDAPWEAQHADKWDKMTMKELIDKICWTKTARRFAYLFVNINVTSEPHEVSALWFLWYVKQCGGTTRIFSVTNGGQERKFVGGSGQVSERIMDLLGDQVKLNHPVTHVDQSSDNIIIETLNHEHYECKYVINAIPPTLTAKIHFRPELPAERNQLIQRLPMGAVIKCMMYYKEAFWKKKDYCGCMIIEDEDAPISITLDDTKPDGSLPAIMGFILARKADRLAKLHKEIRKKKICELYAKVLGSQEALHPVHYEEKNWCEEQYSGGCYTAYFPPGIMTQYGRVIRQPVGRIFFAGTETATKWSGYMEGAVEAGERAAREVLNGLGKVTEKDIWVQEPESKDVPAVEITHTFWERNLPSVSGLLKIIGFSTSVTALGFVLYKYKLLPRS

H4 cells [4] = test: PrestoBlue cell proliferation/viability assay; type: cell-based, human; settings: 72 h; for IC50: Homo sapiens, read-out: H4 (cell proliferation) IC50
U87 cells [5] = test: PrestoBlue cell proliferation/viability assay; type: cell-based, human; settings: 72 h; for U87 (cell proliferation) % inhibition at highest dose tested: PrestoBlue; for IC50: Homo sapiens, U-87 MG, read-out: U87 (cell proliferation) IC50
H4 cells [6] = test: High content imaging assay; type: cell-based, human; settings: read-out: H4 (nuclear count) IC50, 72 h
U87 cells [7] = test: High content imaging assay; type: cell-based, human; settings: 72 h; for U87 (nuclear count) % inhibition at highest dose tested: Hoechst 33342 high content imaging, highest dose tested (66 μM); for inhibition at 66 µM / IC50: Homo sapiens, U-87 MG; for inhibition at 66 µM: read-out: U87 (nuclear count) % inhibition at highest dose tested; for IC50: read-out: U87 (nuclear count) IC50
DYRK1A [8] = molecular target: T1, DYRK1A; settings: read-out: DYRK1A IC50, published values, ref Adayev et al., 2011, Bain et al., 2007, Bálint et al., 2017, Bruel et al., 2014, Foucourt et al., Göckler et al., 2009, Grabher et al., 2012, Kim et al., 2016, Kumar et al., 2018, Liu et al., 2017b, PubChem; cited from earlier work
DYRK2 = molecular target: T3, DYRK2 (Homo sapiens, UniProt Q92630); test: Kinase selectivity panel; settings: 10 μM, n = 2
T3 sequence (Q92630 1-601): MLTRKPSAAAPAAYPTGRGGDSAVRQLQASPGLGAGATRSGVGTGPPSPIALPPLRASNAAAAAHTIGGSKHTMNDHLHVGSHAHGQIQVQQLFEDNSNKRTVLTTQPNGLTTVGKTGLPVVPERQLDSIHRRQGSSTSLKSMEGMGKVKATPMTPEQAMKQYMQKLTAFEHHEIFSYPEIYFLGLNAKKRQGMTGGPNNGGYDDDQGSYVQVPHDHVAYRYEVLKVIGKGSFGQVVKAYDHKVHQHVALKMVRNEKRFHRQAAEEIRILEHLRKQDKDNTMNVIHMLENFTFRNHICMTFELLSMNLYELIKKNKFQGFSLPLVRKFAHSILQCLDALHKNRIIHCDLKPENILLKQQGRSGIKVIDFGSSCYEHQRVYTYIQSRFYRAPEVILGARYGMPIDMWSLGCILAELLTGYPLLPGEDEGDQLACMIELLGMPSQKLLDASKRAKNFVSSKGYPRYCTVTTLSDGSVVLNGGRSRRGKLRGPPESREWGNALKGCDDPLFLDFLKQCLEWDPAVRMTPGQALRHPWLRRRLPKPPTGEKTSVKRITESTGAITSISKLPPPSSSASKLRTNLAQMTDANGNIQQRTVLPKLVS

MAO-A = settings: read-out: MAO-A IC50, published, ref Bálint et al., 2017, Clarke and Ramsay, 2011, Herraiz and Brandt, 2014, Herraiz and Chaparro, 2005, Ionescu et al., 2012, Kim et al., 1997, Rahman and Rahmatullah, 2010, Reniers et al., Rommelspacher et al., 1994, Rüben et al., 2015, Santillo et al., Wurzlbauer et al., 2020; cited from earlier work
CLK1 [9] = molecular target: T4, CLK1 (Homo sapiens, UniProt P49759); test: Kinase selectivity panel; type: biochemical; settings: 10 μM, n = 2
DYRK1B = DYRK1B (Homo sapiens, UniProt Q9Y463); test: Kinase selectivity panel; type: biochemical; settings: 10 μM, n = 2
DYRK1A [10] = molecular target: T1, DYRK1A; test: Kinase selectivity panel; type: biochemical; settings: 10 μM, n = 2
CLK1 [11] = molecular target: T4, CLK1; test: InCELL Hunter / PathHunter in-cell target engagement assay; type: cell-based; settings: for Effect on β-gal activity (CLK1 target engagement): 0.5, 5 and 50 μM
[12] = system: U87 human glioblastoma cells; test: U87 glioma tumor xenograft in nude NU/J mice; type: in vivo; settings: for Effect on body weight: up to 21 days; for Tremor activity in treated mice: anecdotal observation, duration of the study
panel of 10 kinases = test: Kinase selectivity panel; settings: 10 μM
CK1α1 = CK1α1 (Homo sapiens, UniProt P48729); test: Kinase selectivity panel; settings: 10 μM, n = 2
PIM1 = PIM1 (Homo sapiens, UniProt P11309); test: Kinase selectivity panel; settings: 10 μM, n = 2
[13] = using TR-FRET DYRK1A IC50 values
[14] = DYRK1A IC50, TR-FRET, 10-point 2-fold dose response

T4 sequence (P49759 whole entry): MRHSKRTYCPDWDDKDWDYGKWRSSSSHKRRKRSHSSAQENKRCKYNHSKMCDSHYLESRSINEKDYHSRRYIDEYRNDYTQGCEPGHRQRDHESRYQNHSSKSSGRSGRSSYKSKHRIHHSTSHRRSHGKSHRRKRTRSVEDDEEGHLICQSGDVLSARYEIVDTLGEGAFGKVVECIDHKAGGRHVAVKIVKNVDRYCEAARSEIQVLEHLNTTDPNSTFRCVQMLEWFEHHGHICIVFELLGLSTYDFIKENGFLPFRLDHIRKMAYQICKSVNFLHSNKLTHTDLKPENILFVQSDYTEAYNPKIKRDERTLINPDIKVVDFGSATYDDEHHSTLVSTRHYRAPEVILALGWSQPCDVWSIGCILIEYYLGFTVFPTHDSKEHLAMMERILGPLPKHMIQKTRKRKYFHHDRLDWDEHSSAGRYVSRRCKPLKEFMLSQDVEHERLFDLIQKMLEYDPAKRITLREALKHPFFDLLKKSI
Sequence of DYRK1B (Q9Y463 whole entry): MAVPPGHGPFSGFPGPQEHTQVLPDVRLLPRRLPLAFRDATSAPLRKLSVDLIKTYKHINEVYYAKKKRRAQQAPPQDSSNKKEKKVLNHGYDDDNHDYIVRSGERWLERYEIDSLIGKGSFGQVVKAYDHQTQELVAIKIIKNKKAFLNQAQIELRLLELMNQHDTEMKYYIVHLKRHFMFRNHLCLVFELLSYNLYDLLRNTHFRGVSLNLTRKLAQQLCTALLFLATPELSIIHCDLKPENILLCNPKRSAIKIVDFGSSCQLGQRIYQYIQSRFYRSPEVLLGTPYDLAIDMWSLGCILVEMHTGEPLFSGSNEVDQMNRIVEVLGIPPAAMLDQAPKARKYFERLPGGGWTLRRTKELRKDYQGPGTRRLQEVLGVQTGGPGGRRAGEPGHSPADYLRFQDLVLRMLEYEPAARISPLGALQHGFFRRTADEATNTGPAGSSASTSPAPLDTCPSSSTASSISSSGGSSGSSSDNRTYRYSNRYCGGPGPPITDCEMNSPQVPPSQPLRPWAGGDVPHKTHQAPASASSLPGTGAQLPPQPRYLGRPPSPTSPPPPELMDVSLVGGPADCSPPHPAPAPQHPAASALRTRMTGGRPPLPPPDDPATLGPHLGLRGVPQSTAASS
Sequence of CK1α1 (P48729 whole entry): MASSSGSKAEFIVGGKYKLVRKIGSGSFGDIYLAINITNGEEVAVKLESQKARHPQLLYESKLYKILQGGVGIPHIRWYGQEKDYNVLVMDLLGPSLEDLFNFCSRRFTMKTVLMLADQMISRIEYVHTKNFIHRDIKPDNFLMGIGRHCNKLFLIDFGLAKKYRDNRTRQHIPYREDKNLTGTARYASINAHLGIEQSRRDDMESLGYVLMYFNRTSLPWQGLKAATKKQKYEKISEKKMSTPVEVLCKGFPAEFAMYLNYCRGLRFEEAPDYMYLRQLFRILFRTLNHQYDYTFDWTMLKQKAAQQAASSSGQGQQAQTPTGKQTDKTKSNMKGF
Sequence of PIM1 (P11309 whole entry): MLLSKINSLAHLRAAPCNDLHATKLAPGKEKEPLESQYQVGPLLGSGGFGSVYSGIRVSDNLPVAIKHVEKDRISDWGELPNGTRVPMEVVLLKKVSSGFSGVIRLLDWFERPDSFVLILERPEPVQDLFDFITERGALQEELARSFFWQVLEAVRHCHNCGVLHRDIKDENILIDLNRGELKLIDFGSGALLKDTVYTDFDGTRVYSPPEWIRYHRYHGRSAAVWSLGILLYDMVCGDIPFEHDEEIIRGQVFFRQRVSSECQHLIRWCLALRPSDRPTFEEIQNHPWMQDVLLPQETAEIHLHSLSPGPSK

Structure (SMILES) | DYRK1A:MAO-A (IC50 ratio) [3, 13] | U87 (cell proliferation) % inhibition at highest dose tested (U87 cells [5]) | IC50 (DYRK1A [8]) [nM] | IC50 (DYRK1A [1]; [14]) [nM] | inhibition at 6.7 µM (DYRK1A [1]) [%] | IC50 (DYRK1A [2]) [nM] | IC50 ([3]; MAO-A IC50, MAO-A Glo) [nM] | IC50 (H4 cells [4]) [nM] | IC50 (H4 cells [6]; Homo sapiens) [nM] | inhibition at 66 µM (U87 cells [7]) [%] | IC50 (MAO-A) [nM] | other results
COc1ccc2c3c([nH]c2c1)[C@@H](C)NCC3 [Tetrahydroharmine, tetrahydroharmine] | 6.2 | No inhibition ^c | 2990 | – | – | – | – | – | – | – | – | IC50 (DYRK1A [1]; read-out: DYRK1A IC50, TR-FRET, 10-point 2-fold dose response): 9410 nM; IC50 (DYRK1A [1]; read-out: DYRK1A IC50, TR-FRET, 10-point 2-fold dose response, listed as tetrahydroharmine): 9400 nM; IC50 (DYRK1A [2]; read-out: DYRK1A IC50, 33P-ATP, casein substrate, ATP 10 μM, data generated by Reaction Biology): 6420 nM; IC50 ([3]; read-out: MAO-A IC50, MAO-A Glo): 1520 nM; H4 (cell proliferation) % inhibition at highest dose tested (H4 cells [4]; PrestoBlue, highest dose tested): 38%^c; IC50 (H4 cells [6]; Hoechst 33342 high content imaging): 26900 nM; U87 (nuclear count) % inhibition at highest dose tested (U87 cells [7]): ~50% ^c; Reduction in enzyme activity, DYRK2 (DYRK2): minimal effect
Cc1nccc2c1[nH]c1ccccc12 [Harmane, harmane] | 4.2 | 30% ^c | 1820 | 2680 | 71 | 1000 | 640 | > 25000 | 17100 | ~50 | 29 to 337 | –
CC1=NCCc2c1[nH]c1cc(O)ccc21 [Harmalol, harmalol] | – | 37% ^c | – | 630 | 79 | 180 | 660 | 23700 | 25200 | < 50 | 153 | Fold lower activity against DYRK1A than harmol (DYRK1A [1]): ~ 6 fold; DYRK1A:MAO-A (IC50 ratio) [3]: 1.0; Reduction in enzyme activity, CLK1 (CLK1 [9]): ~100%; Reduction in enzyme activity, DYRK1B (DYRK1B): ~100%; Reduction in enzyme activity, DYRK1A (panel) (DYRK1A [10]): ~100%
Cc1[nH]ccc2c1[nH]c1cc(=O)ccc12 [Harmol, harmol] | 0.2 | – | 44 to 298 | 100 | 78 | 16 | 500 | 10900 | 20000 | – | 530 | IC50 (DYRK1A [1]; DYRK1A IC50, TR-FRET, dose response): 70 to 100 nM; Fold more potent IC50 with 33P-ATP assay versus TR-FRET (DYRK1A [2]; DYRK1A): 6–7 fold; Fold weaker than harmine for MAO-A [3]: 10 fold; IC50 (U87 cells [5]): 19100 nM; IC50 (U87 cells [7]): 20800 nM; Effect on β-gal activity (CLK1 target engagement) (CLK1 [11]): increase in β-gal activity; Tumor inhibition rate ([12]; 15 mg/kg i.p. q.d.): 28.2%; Effect on body weight ([12]; 15 mg/kg i.p. q.d.): did not lead to significant differences in body weight; Tumor inhibition rate ([12]; 60 mg/kg i.p. q.d.): 38.1%; Effect on body weight ([12]; 60 mg/kg i.p. q.d.): did not lead to significant differences in body weight; Survival (Kaplan-Meier) compared to vehicle ([12]; 60 mg/kg i.p. q.d., not statistically significant): trend towards improved survival; Tremor activity in treated mice [12]: no tremor activity; Tumor growth ([12]; high dose (60 mg/kg), day 21, not reaching significance): modest decrease in tumor growth; Number of the 10 kinases displaying 50% or greater inhibition (panel of 10 kinases): 7
COC(=O)[C@@]1(O)C[C@H]2O[C@]1(C)n1c3ccccc3c3c4c(c5c6ccccc6n2c5c31)C(=O)NC4 [K252a] | – | – | – | – | – | – | – | – | – | – | – | EC50 (CLK1 [11]; read-out: CLK1 cellular target engagement EC50, positive control inhibitor): 8.7 nM
CN[C@@H]1C[C@H]2O[C@@](C)([C@@H]1OC)n1c3ccccc3c3c4c(c5c6ccccc6n2c5c31)C(=O)NC4 [Staurosporine, reference compound] | – | – | – | – | – | – | – | – | – | – | – | MAO-A IC50, MAO-A Glo [3]: No inhibition
COc1ccc2c3c([nH]c2c1)C(C)=NCC3 [Harmaline, harmaline] | 26.1 | 14% ^c | 1240 to 4590 | 2350 | 81 | 790 | 90 | 19600 | 14900 | ~66 | 5 to 20 | Fold more potent on MAO-A over DYRK1A ([3]; DYRK1A TR-FRET vs MAO-A): ~ 25 fold and ~ 30 fold; IC50 ([3]; MAO-A IC50, MAO-Glo): 60 to 90 nM
COc1ccc2c(c1)[nH]c1c(C)nccc12 [Harmine, harmine, reference compound] | – | – | – | – | 74 | – | – | 4900 | 14900 | – | 3 to 107 | IC50 (U87 cells [5]): > 25000 nM; IC50 (U87 cells [7]): 17600 nM; Effect on β-gal activity (CLK1 target engagement) (CLK1 [11]): increase in β-gal activity; Tumor inhibition rate ([12]; 15 mg/kg i.p. q.d.): 16.5%; Effect on body weight ([12]; 15 mg/kg i.p. q.d.): did not lead to significant differences in body weight; Tremor activity in treated mice [12]: no tremor activity; Reduction in enzyme activity, CK1α1 (CK1α1): ≥ 70%; Reduction in enzyme activity, PIM1 (PIM1): ≥ 70%
c1ccc2c(c1)[nH]c1cnccc12 [Norharmane, norharmane] | – | No inhibition ^c | 8750 | 5460 | – | 3190 | – | > 25000 | 29100 | – | […] | U87 (nuclear count) % inhibition at highest dose tested (U87 cells [7]): No inhibition ^c
